From US20040242697A1, “Methods of reducing pests by use of iodoacetic acid, bromoacetic acid, 2-iodoacetamide, or 2-bromoacetamide” (priority 2003, published 2004)

Assays:
[1] = system: Fusarium oxysporum f. sp. lycopersici (isolate FP-7) spores; assay: Fusarium tetrazolium (MTT) spore viability assay; assay type: cell-based; settings: for concentration giving elimination of viable cells: 24 hr exposure, absorbance at 570 nm; for cell viability result compared with Benlate control: tetrazolium cell viability test
Protocol: (§1) The suspension was then standardized using a Beckman spectrophotometer (430 nm), which has been calibrated using a CDB blank. […] Suspensions were incubated for 24 hr at 28° C. A 10% stock solution of MTT was then added to each aliquot. The suspensions were allowed to incubate for 4 hr, then pelleted, drained, rinsed, and treated with 95% ethanol. The color change, which correlates with spore viability, was assessed using the Beckman spectrophotometer (570 nm), calibrated with 95% ethanol. Benlate (benomyl) was used as an industry standard control. Each treatment was replicated six times and the assay for each compound was repeated. […] A mycelial plug of (cork bore size #3) Fusarium oxysporum f. sp. lycopersici (isolate FP-7) from a 7-day old culture was placed at the center of the plate and the radial growth of the fungus was measured for 7-10 days. Each treatment was replicated six times and the assay for each compound was repeated. Regression analysis was performed using Sigma Plot 2000.
(§2) The tetrazolium assay is based on a color change produced with a vital stain on living tissue, i.e. the lower the absorbance, the fewer viable cells.

[2] = system: Fusarium oxysporum f. sp. lycopersici (isolate FP-7); assay: Fusarium petri plate (PDA) assay, radial growth; assay type: cell-based; settings: for fungal growth elimination compared with Benlate control: PDA-based assay
Protocol: as §1, §2

[3] = system: purple nutsedge (Cyperus rotundus) tubers; assay: Nutsedge greenhouse assay, soil drench on tubers in pots; assay type: in vivo; settings: 100 ml soil drench, tarped 7 days, shoots counted 60 days
Protocol: Herbicide Screen: Each candidate compound was tested on seeds of smooth pigweed (Amaranthus hybridus) and barnyard grass (Echinocloa crus-galli), and on tubers of purple nutsedge (Cyperus rotundus) by exposing seeds or tubers to a specific concentration of the test compound. Seeds were surface sterilized and 20 seeds placed on sterile filter paper (Whatman #5) in a 10-cm petri plate for each of six replicates for each weed species tested. Twenty ml of compound of concentrations ranging from 0 ppm (sterile water control) to 2000 ppm was added to the petri dishes. Plates were stored at 30° C. in an dark incubator. Seed germination was monitored at 24 hr intervals for 30 days. Petri plate bioassays were repeated twice for each compound. Field collected purple nutsedge tubers were placed in 500 g of field soil with soil moisture adjusted to 5%. Five nutsedge tubers were planted in each 10-cm pot at a depth of 2.5 cm. Six replicate pots of each concentration, ranging from 0 ppm (water control) to 2000 ppm, will be treated using 100 ml as a soil drench. Pots were tarped with co-extruded black-on-white polyethylene mulch for 7 days. After tarps were removed, the number of emerged nutsedge shoots was recorded on a weekly basis for 60 days.

[4] = system: nutsedge (Cyperus esculentus and C. rotundus); assay: Field study, weed biomass emerging through the plastic mulch; assay type: in vivo; settings: pre-plant, tomato field, Florida
[5] = system: native weed population (weeds in the plant hole); assay: Field study, weed biomass emerging in the planting hole; assay type: in vivo; settings: pre-plant, tomato field, Florida
[6] = system: root knot nematode Meloidogyne sp.; assay: Field study, root knot nematode root galling on tomato; assay type: in vivo; settings: 600 and 800 lb per acre, assessed at harvest; population unevenly distributed

SMILES	concentration giving elimination of viable cells [1]	fungal growth elimination compared with Benlate control [2]	cell viability result compared with Benlate control [1]	further results
CCCCNC(=O)n1c(NC(=O)OC)nc2ccccc21 [Benlate, benomyl, reference compound]	100 ppm	–	–	–
NC(=O)CBr [bromoacetamide, 2-bromoacetamide]	100 ppm	significantly better than the Benlate control	comparable to a Benlate control	concentration eliminating germination of nutsedge [3]: ≥ 1000 ppm
O=C(O)CBr [bromoacetic acid]	–	significantly better than the Benlate control	–	control of nutsedge emerging through the plastic versus methyl bromide ([4]; 600 lb per acre): as effective as methyl bromide; control of nutsedge emerging through the plastic (fresh and dry weight) versus methyl bromide ([4]; 800 lb per acre): as effective as methyl bromide; control of weeds in the plant hole versus methyl bromide ([5]; 600 lb per acre): not as effective; control of weeds emerging in the plant hole (fresh and dry weight) versus methyl bromide ([5]; 800 lb per acre): as effective as methyl bromide; root knot nematode control (root galling, scale 0-10) versus untreated check [6]: not statistically significantly different from the untreated check
NC(=O)CI [iodoacetamide, 2-iodoacetamide]	100 ppm	significantly better than the Benlate control	comparable to a Benlate control	–
O=C(O)CI [iodoacetic acid]	–	comparable to the Benalte control	–	concentration at which fungal growth was eliminated ([2]; compound in potato dextrose agar, radial growth measured 7-10 days): ≥ 500 ppm
